Experimental data reported in publication PMC10683023, “Targeting Glial Cells by Organic Anion-Transporting Polypeptide 1C1 (OATP1C1)-Utilizing L-Thyroxine-Derived Prodrugs” (Journal of Medicinal Chemistry, 2023).

tested on: oatp1a4/1a5/1a6; assay: Competitive uptake into mouse primary astrocytes in the presence of OATP1A2 inhibitor naringin; format: cell-based; details: 100 μM prodrug, 100 μM NRG, result in words
Method: The competitive uptake in the presence of OATP-inhibitors or competing substrates (100 μM), diclofenac (DFC) and flufenamic acid (FFA), for OATP1C1 and naringin (NRG) for OATP1A2 was carried out as described above with HBSS buffer at pH 7.4 containing 100 μM of the studied compound. The cells were preincubated with the inhibitors for 10 min, and the incubation mixture was removed before adding the studied compound and the inhibitor to the cells. The competitive uptake (30 min) with the inhibitor was then carried out as the normal uptake described above. The concentrations of the studied compounds were analyzed by the HPLC methods described below, calculated from the spiked standard curve, and normalized with the protein concentrations.
The amount of prodrug 1–8 was determined by the HPLC system, which consisted of an Agilent 1100 binary pump (Agilent Technologies Inc., Wilmington, DE), an 1100 micro vacuum degasser, an HP 1050 Autosampler, and an HP 1050 variable wavelength detector, operated at 230–240 nm. The chromatographic separations were achieved on an Agilent Zorbax SB-C18 analytical column (4.4 mm × 150 mm, 5 μm) (Agilent Technologies Inc., Wilmington, DE) by using isocratic elution of water containing 0.1% formic acid (pH ca. 3.0) and acetonitrile containing 0.1% formic acid with ratios of 50:50, 30:70, 40:60, 50:50, 50:50, 40:60, 40:60, and 30:70 (v/v), respectively, for prodrug 1–8. […] The lower limit of quantification for prodrugs 1–8 was 0.20 μM. These HPLC methods were also accurate, precise, and selective over the range of 0.5–20 μM.

Row | SMILES | Cellular uptake in the presence of OATP1A2 inhibitor naringin (NRG)
1 | CC(C(=O)Oc1c(I)cc(Oc2c(I)cc(C[C@H](N)C(=O)O)cc2I)cc1I)c1cccc(C(=O)c2ccccc2)c1 (mixture of isomers) [Prodrug 2, (2S)-2-Amino-3-(4-(4-((2-(3-benzoylphenyl)propanoyl)oxy)-3,5-diiodophenoxy)-3,5-diiodophenyl)propanoic acid] | greatest decrease
2 | COc1ccc2cc([C@H](C)C(=O)Oc3c(I)cc(C[C@H](N)C(=O)O)cc3I)ccc2c1 [Prodrug 5, (S)-2-Amino-3-(3,5-diiodo-4-(((S)-2-(6-methoxynaphthalen-2-yl)propanoyl)oxy)phenyl)propanoic acid] | increased
3 | COc1ccc2cc([C@H](C)C(=O)Oc3c(I)cc(Oc4c(I)cc(C[C@H](N)C(=O)O)cc4I)cc3I)ccc2c1 [Prodrug 6, (S)-2-Amino-3-(4-(3,5-diiodo-4-(((S)-2-(6-methoxynaphthalen-2-yl)propanoyl)oxy)phenoxy)-3,5-diiodophenyl)propanoic acid] | increased
